From US20220041583A1, “IMMUNOMODULATORS, COMPOSITIONS AND METHODS THERE OF” (BETTA PHARMACEUTICALS CO., LTD, priority 2018, published 2022)
Where a name gives a salt, the structure may show the parent alone.

Molecular target: T1, PD-1/PD-L1 (Homo sapiens, UniProt Q9NZQ7)
T1 construct: Recombinant human PD-L1 protein (19-238) with a His-tag at the C-terminus; purchased AcroBiosystems PD1-H5229 (PD-L1); PD1-H5257 (PD-1)
Experiment: PD-1/PD-L1 homogenous time-resolved fluorescence (HTRF) binding assay
Protocol: Resolved Fluorescence (HTRF) Binding Assay
The assays were conducted in a standard black 384-well polystyrene plate with a final volume of 20 μL. Inhibitors were first serially diluted in DMSO and then added to the plate wells before the addition of other reaction components. The final concentration of DMSO in the assay was 1%. The assays were carried out at 25° C. in the PBS buffer (pH 7.4) with 0.05% Tween-20 and 0.1% BSA. Recombinant human PD-L1 protein (19-238) with a His-tag at the C-terminus was purchased from AcroBiosy stems (PD1-H5229). Recombinant human PD-1 protein (25-167) with Fc tag at the C-terminus was also purchased from AcroBiosystems (PD1-H5257). PD-L1 and PD-1 proteins were diluted in the assay buffer and 10 μL was added to the plate well. Plates were centrifuged and proteins were preincubated with inhibitors for 40 min. The incubation was followed by the addition of 10 μL of HTRF detection buffer supplemented with Europium cryptate-labeled anti-human IgG (PerkinElmer-AD0212) specific for Fc and anti-His antibody conjugated to SureLight®-Allophycocyanin (APC, PerkinElmer-AD0059H). After centrifugation, the plate was incubated at 25° C. for 60 min. Before reading on a PHERAstar FS plate reader (665 nm/620 nm ratio). Final concentrations in the assay were […] PD1, 10 nM PD-L1, 1 nM europium anti-human IgG and 20 nM anti-His-Allophycocyanin. IC50 determination was performed by fitting the curve of percent control activity versus the log of the inhibitor concentration using the GraphPad Prism 5.0 software.

T1 sequence (Q9NZQ7 19-238): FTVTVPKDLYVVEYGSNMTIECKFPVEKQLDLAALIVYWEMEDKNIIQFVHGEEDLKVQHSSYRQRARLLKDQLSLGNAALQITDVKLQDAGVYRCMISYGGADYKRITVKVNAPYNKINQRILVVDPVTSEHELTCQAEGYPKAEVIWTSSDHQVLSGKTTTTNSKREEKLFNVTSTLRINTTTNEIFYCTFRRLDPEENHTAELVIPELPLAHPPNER

Row | IC50 (Table 6, numeric values) [nM] | IC50 (Table 6, class symbols) [nM] | SMILES
1 | 1.9 | – | CSc1cc2oc(-c3cccc(-c4ccccc4)c3C)nc2cc1CN1CCCC[C@H]1C(=O)O [Example 1, (S)-1-((2-(2-methyl-[1,1′-biphenyl]-3-yl)-6-(methylthio)benzo[d]oxazol-5-yl)methyl)piperidine-2-carboxylic acid]
2 | – | 10 to 100 | CSc1cc2oc(-c3cccc(-c4ccccc4)c3C)nc2cc1CN[C@@H](C(=O)O)[C@@H](C)O [Example 3, ((2-(2-methyl-[1,1′-biphenyl]-3-yl)-6-(methylthio)benzo[d]oxazol-5-yl)methyl)-D-allothreonine]
3 | – | 0.1 to 10 | CSc1cc2oc(-c3cccc(-c4ccccc4)c3C)nc2cc1CN[C@H](C(=O)O)[C@H](C)O [Example 4, ((2-(2-methyl-[1,1′-biphenyl]-3-yl)-6-(methylthio)benzo[d]oxazol-5-yl)methyl)-L-allothreonine]
4 | – | 0.1 to 10 | CSc1cc2oc(-c3cccc(-c4ccccc4)c3C)nc2cc1CN[C@@H](C)C(=O)O [Example 5, ((2-(2-methyl-[1,1′-biphenyl]-3-yl)-6-(methylthio)benzo[d]oxazol-5-yl)methyl)-L-alanine]
5 | – | 10 to 100 | CSc1cc2oc(-c3cccc(-c4ccccc4)c3C)nc2cc1CN[C@H](C)C(=O)O [Example 6, ((2-(2-methyl-[1,1′-biphenyl]-3-yl)-6-(methylthio)benzo[d]oxazol-5-yl)methyl)-D-alanine]
6 | – | 0.1 to 10 | CSc1cc2oc(-c3cccc(-c4ccccc4)c3C)nc2cc1CN1CCC[C@@H]1C(=O)O [Example 7, ((2-(2-methyl-[1,1′-biphenyl]-3-yl)-6-(methylthio)benzo[d]oxazol-5-yl)methyl)-D-proline]
7 | – | 10 to 100 | CSc1cc2oc(-c3cccc(-c4ccccc4)c3C)nc2cc1CN1CCCCC1CO (centres unmarked) [Example 8, (1-((2-(2-methyl-[1,1′-biphenyl]-3-yl)-6-(methylthio)benzo[d]oxazol-5-yl)methyl)piperidin-2-yl)methanol]
8 | – | 0.1 to 10 | CSc1cc2oc(-c3cccc(-c4ccccc4)c3C)nc2cc1CN1CCOC[C@H]1C(=O)O [Example 9, (S)-4-((2-(2-methyl-[1,1′-biphenyl]-3-yl)-6-(methylthio)benzo[d]oxazol-5-yl)methyl)morpholine-3-carboxylic acid]
9 | – | 0.1 to 10 | CC[C@H](NCc1cc2nc(-c3cccc(-c4ccccc4)c3C)oc2cc1SC)C(=O)O [Example 10, (S)-2-(((2-(2-methyl-[1,1′-biphenyl]-3-yl)-6-(methylthio)benzo[d]oxazol-5-yl)methyl)amino)butanoic acid]
10 | – | 10 to 100 | CC[C@@H](NCc1cc2nc(-c3cccc(-c4ccccc4)c3C)oc2cc1SC)C(=O)O [Example 11, (R)-2-(((2-(2-methyl-[1,1′-biphenyl]-3-yl)-6-(methylthio)benzo[d]oxazol-5-yl)methyl)amino)butanoic acid]
11 | – | 0.1 to 10 | CSc1cc2oc(-c3cccc(-c4ccccc4)c3C)nc2cc1CN[C@H](CO)C(=O)O [Example 12, ((2-(2-methyl-[1,1′-biphenyl]-3-yl)-6-(methylthio)benzo[d]oxazol-5-yl)methyl)-D-serine]
12 | – | 0.1 to 10 | CSc1cc2oc(-c3cccc(-c4ccccc4)c3C)nc2cc1CN[C@@H](CO)C(=O)O [Example 13, ((2-(2-methyl-[1,1′-biphenyl]-3-yl)-6-(methylthio)benzo[d]oxazol-5-yl)methyl)-L-serine]
13 | – | 0.1 to 10 | CSc1cc2oc(-c3cccc(-c4ccccc4)c3C#N)nc2cc1CN1CCC[C@H]1C(=O)O [Example 14, ((2-(2-cyano-[1,1′-biphenyl]-3-yl)-6-(methylthio)benzo[d]oxazol-5-yl)methyl)-L-proline]
14 | – | 10 to 100 | CSc1cc2oc(-c3cccc(-c4ccccc4C#N)c3C#N)nc2cc1CN1CCC[C@H]1C(=O)O [Example 15, ((2-(2,2′-dicyano-[1,1′-biphenyl]-3-yl)-6-(methylthio)benzo[d]oxazol-5-yl)methyl)-L-proline]
15 | – | 0.1 to 10 | CSc1cc2oc(-c3cccc(-c4ccccc4)c3C)nc2cc1CN1CCCC1(C)C(=O)O (centres unmarked) [Example 16, 2-methyl-1-((2-(2-methyl-[1,1′-biphenyl]-3-yl)-6-(methylthio)benzo[d]oxazol-5-yl)methyl)pyrrolidine-2-carboxylic acid]
16 | – | 0.1 to 10 | Cc1cc2oc(-c3cccc(-c4ccccc4)c3C#N)nc2cc1CN1CCC[C@@H]1C(=O)O [Example 17, ((2-(2-cyano-[1,1′-biphenyl]-3-yl)-6-methylbenzo[d]oxazol-5-yl)methyl)-D-proline]

Row | IC50 (Table 6, numeric values) [nM] | IC50 (Table 6, class symbols) [nM] | SMILES
17 | – | 0.1 to 10 | Cc1cc2oc(-c3cccc(-c4ccccc4)c3C#N)nc2cc1CN1CCC[C@H]1C(=O)O [Example 18, ((2-(2-cyano-[1,1′-biphenyl]-3-yl)-6-methylbenzo[d]oxazol-5-yl)methyl)-L-proline]
18 | – | 0.1 to 10 | Cc1cc2oc(-c3cccc(-c4ccccc4)c3C#N)nc2cc1CN1CCOC[C@H]1C(=O)O [Example 19, (S)-4-((2-(2-cyano-[1,1′-biphenyl]-3-yl)-6-methylbenzo[d]oxazol-5-yl)methyl)morpholine-3-carboxylic acid]
19 | – | 10 to 100 | Cc1c(-c2ccccc2)cccc1-c1nc2cc(CN3CCC[C@H]3C(=O)O)c(O)cc2o1 [Example 21, ((6-hydroxy-2-(2-methyl-[1,1′-biphenyl]-3-yl)benzo[d]oxazol-5-yl)methyl)-L-proline]
20 | – | 10 to 100 | Cc1c(-c2ccccc2)cccc1-c1nc2cc(CN3CC[C@H](O)C3)c(F)cc2o1 [Example 23, (S)-1-((6-fluoro-2-(2-methyl-[1,1′-biphenyl]-3-yl)benzo[d]oxazol-5-yl)methyl)pyrrolidin-3-ol]
21 | 7.2 | – | Cc1c(-c2ccccc2)cccc1-c1nc2cc(CN3CCC[C@H]3C(=O)O)c(F)cc2o1 [Example 24, ((6-fluoro-2-(2-methyl-[1,1′-biphenyl]-3-yl)benzo[d]oxazol-5-yl)methyl)-L-proline]
22 | 7.4 | – | Cc1c(-c2ccccc2)cccc1-c1nc2cc(CN3CCCC[C@H]3C(=O)O)c(F)cc2o1 [Example 25, (S)-1-((6-fluoro-2-(2-methyl-[1,1′-biphenyl]-3-yl)benzo[d]oxazol-5-yl)methyl)piperidine-2-carboxylic acid]
23 | – | 0.1 to 10 | Cc1c(-c2ccccc2)cccc1-c1nc2cc(CN3CCCCC3C(=O)O)c(C#N)cc2o1 (centres unmarked) [Example 26, 1-((6-cyano-2-(2-methyl-[1,1′-biphenyl]-3-yl)benzo[d]oxazol-5-yl)methyl)piperidine-2-carboxylic acid]
24 | – | 0.1 to 10 | CNc1cc2oc(-c3cccc(-c4ccccc4)c3C)nc2cc1CN1CCCCC1C(=O)O (centres unmarked) [Example 27, 1-((2-(2-methyl-[1,1′-biphenyl]-3-yl)-6-(methylamino)benzo[d]oxazol-5-yl)methyl)piperidine-2-carboxylic acid]
25 | 4.8 | – | Cc1c(-c2ccccc2)cccc1-c1nc2cc(CN[C@@H](C(=O)O)[C@@H](C)O)c(OC(F)F)cc2o1 [Example 30, ((6-(difluoromethoxy)-2-(2-methyl-[1,1′-biphenyl]-3-yl)benzo[d]oxazol-5-yl)methyl)-D-allothreonine]
26 | 3.2 | – | Cc1c(-c2ccccc2)cccc1-c1nc2cc(CN[C@H](C(=O)O)[C@H](C)O)c(OC(F)F)cc2o1 [Example 31, ((6-(difluoromethoxy)-2-(2-methyl-[1,1′-biphenyl]-3-yl)benzo[d]oxazol-5-yl)methyl)-L-allothreonine]
27 | – | 0.1 to 10 | Cc1c(-c2ccccc2)cccc1-c1nc2cc(CN[C@@H](Cc3ccc(O)cc3)C(=O)O)c(OC(F)F)cc2o1 [Example 32, ((6-(difluoromethoxy)-2-(2-methyl-[1,1′-biphenyl]-3-yl)benzo[d]oxazol-5-yl)methyl)-L-tyrosine hydrochloride]
28 | – | 0.1 to 10 | Cc1c(-c2ccccc2)cccc1-c1nc2cc(CN[C@@H](C)C(=O)O)c(OC(F)F)cc2o1 [Example 33, ((6-(difluoromethoxy)-2-(2-methyl-[1,1′-biphenyl]-3-yl)benzo[d]oxazol-5-yl)methyl)-L-alanine]
29 | – | 10 to 100 | Cc1c(-c2ccccc2)cccc1-c1nc2cc(CN[C@H](C)C(=O)O)c(OC(F)F)cc2o1 [Example 34, ((6-(difluoromethoxy)-2-(2-methyl-[1,1′-biphenyl]-3-yl)benzo[d]oxazol-5-yl)methyl)-D-alanine]
30 | – | 0.1 to 10 | Cc1c(-c2ccccc2)cccc1-c1nc2cc(CNCC(=O)O)c(OC(F)F)cc2o1 [Example 35, ((6-(difluoromethoxy)-2-(2-methyl-[1,1′-biphenyl]-3-yl)benzo[d]oxazol-5-yl)methyl)glycine]
31 | – | 10 to 100 | Cc1c(-c2ccccc2)cccc1-c1nc2cc(CN3CCC[C@@H]3C(=O)O)c(OC(F)F)cc2o1 [Example 37, ((6-(difluoromethoxy)-2-(2-methyl-[1,1′-biphenyl]-3-yl)benzo[d]oxazol-5-yl)methyl)-D-proline]
32 | – | 0.1 to 10 | Cc1c(-c2ccccc2)cccc1-c1nc2cc(CN3CCCCC3CO)c(OC(F)F)cc2o1 (centres unmarked) [Example 38, (1-((6-(difluoromethoxy)-2-(2-methyl-[1,1′-biphenyl]-3-yl)benzo[d]oxazol-5-yl)methyl)piperidin-2-yl)methanol]
